Measurements: patent US11021470B2, “2-substituted quinazoline compounds comprising a substituted heterocyclic group and methods of use thereof” (Araxes Pharma LLC, priority 2015, dated 2021)

Molecular target: T1, KRAS G12C 1-169, his-tagged protein, GDP-loaded (Homo sapiens, UniProt P01116, G12C)
T1 construct: KRAS G12C 1-169, his-tagged protein, GDP-loaded
Experiment: KRAS G12C covalent binding (% modification) by mass spectrometry, ten or three minute incubation
Conditions: covalent binding to KRAS G12C after a ten minute incubation period
Method: Test compounds were prepared as 10 mM stock solutions in DMSO (Fisher cat #BP-231-100). KRAS G12C 1-169, his-tagged protein, GDP-loaded was diluted to […] in buffer (20 mM Hepes, 150 mM NaCl, 1 mM MgCl2). Compounds were tested for activity as follows:
Compounds were diluted to 50× final test concentration in DMSO in 96-well storage plates. Compound stock solutions were vortexed before use and observed carefully for any sign of precipitation. Dilutions were as follow: • For 100 μM final compound concentration, compounds were diluted to 5000 μM (5 μl 10 mM compound stock+5 μl DMSO and mixed well by pipetting. • For 30 μM final compound concentration, compounds were diluted to 1500 μM (3 μl 10 mM compound stock+17 μl DMSO) and mixed well by pipetting. • For 10 μM final compound concentration, compounds were diluted to 500 μM (2 μl 10 mM compound stock+38 μl DMSO) and mixed well by pipetting. 49 μl of the stock protein solution was added to each well of a 96-well PCR plate (Fisher cat #1423027). 1 μl of the diluted 50× compounds were added to appropriate wells in the PCR plate using 12-channel pipettor. Reactions were mixed carefully and thoroughly by pipetting up/down with a 200 μl multi-channel pipettor. […] 5 μl of 2% formic acid (Fisher cat #A117) in DI H2O was then added to each well followed by mixing with a pipette. The plate was then resealed with aluminum seal and stored on dry ice until analyzed as described below.
The above described assays were analyzed by mass spectrometry according to one of the following two procedures:
The MS instrument is set to positive polarity, 2 GHz resolution, and low mass (1700) mode and allowed to equilibrate for 30 minutes. The instrument is then calibrated, switched to acquisition mode and the appropriate method loaded.
After another 30 minute equilibration time, a blank batch (i.e., buffer) is run to ensure equipment is operating properly. The samples are thawed at 37° C. for 10 minutes, briefly centrifuged, and transfer to the bench top. Wells A1 and H12 are spiked with 1 μL 500 μM internal standard peptide, and the plates centrifuged at 2000×g for 5 minutes. The method is then run and masses of each individual well recorded.
The masses (for which integration data is desired) for each well are pasted into the platemap and exported from the analysis. Masses for the internal standards are exported as well. The data at 50 ppm is extracted for the +19 charge state, and identity of well A1 is assigned using the internal standard spike and integrated. Peak data is exported as a TOF list and the above steps are repeated individually, for the +20, 21, 22, 23, 24, and 25 charge states.
The masses and peak intensities of KRAS G12C protein species were measured using a Dionex RSLCnano system (Thermo Scientific) connected to a Q Exactive Plus mass spectrometer (Thermo Scientific).
[…] of sample was each loaded onto a Aeris™ 3.6 μm WIDEPORE C4 200 Å, LC Column 50×2.1 mm column maintained at 40° C. at a flow rate of 600 μl min^−1 with […] (0.1% formic acid in acetonitrile). The liquid chromatography conditions were 20% solvent B for 1 min, 20% to 60% solvent B for 1.5 min, 60% to 90% solvent for 0.5 min, 90% solvent B for 0.2 min, 90% to 20% solvent B for 0.2 min, and then equilibrated for 1.6 min before the following sample injection. The flow rate was maintained at 600 μl min^−1 throughout the sample analysis.
The mass spectrometer was operated in profile mode at a resolution of 17500, 5 microscans, using 50 msec max injection time and an AGC target of 1e6, and a full mass range from 800-1850 m/z was recorded. The HCD trapping gas was optimized for maximum sensitivity for intact proteins. The ionization method was electrospray ionization, which used a spray voltage of 4 kV, sheath gas flow set to 50 au, auxiliary gas flow set to 10 au and sweep gas flow set to 1 au. […]

Structure (SMILES)	Binding %
C=CC(=O)N1C[C@H](C)N(c2nc(OCCN3CC(F)(F)C3)nc3c(F)c(-c4c(O)cccc4F)c(Cl)cc23)C[C@H]1C (atropisomer, axis not shown) [Compound 84, 1-((2R,5S)-4-((S)-6-chloro-2-(2-(3,3-difluoroazetidin-1-yl)ethoxy)-8-fluoro-7-(2-fluoro-6-hydroxyphenyl)quinazolin-4-yl)-2,5-dimethylpiperazin-1-yl)prop-2-en-1-one]	+++ (+++ indicates binding activity greater than 90%)
C=CC(=O)N1C[C@H](C)N(c2nc(OCCN(CC)CC)nc3c(F)c(-c4c(O)cccc4F)c(Cl)cc23)C[C@H]1C [Compound 48, 1-((2R,5S)-4-(6-chloro-2-(2-(diethylamino)ethoxy)-8-fluoro-7-(2-fluoro-6-hydroxyphenyl)quinazolin-4-yl)-2,5-dimethylpiperazin-1-yl)prop-2-en-1-one]	++ (++ indicates binding activity from 50 to 90%)

Same assay, conditions: covalent binding to KRAS G12C, % modification after a three minute incubation period

Structure (SMILES)	Binding %
C=CC(=O)N1C[C@H](C)N(c2nc(OCCc3ncc(N(C)C)cn3)nc3c(F)c(-c4c(O)cccc4F)c(Cl)cc23)C[C@H]1C (atropisomer, axis not shown) [Compound 258, 1-((2R,5S)-4-(6-chloro-2-(2-(5-(dimethylamino)pyrimidin-2-yl)ethoxy)-8-fluoro-7-((S)-2-fluoro-6-hydroxyphenyl)quinazolin-4-yl)-2,5-dimethylpiperazin-1-yl)prop-2-en-1-one]	+++ (+++ indicates binding activity greater than 90%)
C=CC(=O)N1C[C@H](C)N(c2nc(OCCn3ccnc3CC)nc3c(F)c(-c4c(O)cccc4F)c(Cl)cc23)C[C@H]1C (atropisomer, axis not shown) [Compound 277, 1-((2R,5S)-4-(6-chloro-2-(2-(2-ethyl-1H-imidazol-1-yl)ethoxy)-8-fluoro-7-((S)-2-fluoro-6-hydroxyphenyl)quinazolin-4-yl)-2,5-dimethylpiperazin-1-yl)prop-2-en-1-one]	+++ (+++ indicates binding activity greater than 90%)
C=CC(=O)N1C[C@@H](C)N(c2nc(N3CC(N(C)C)C3)nc3c(F)c(-c4c(O)cccc4F)c(Cl)cc23)C[C@@H]1C [Compound 87, 1-((2S,5R)-4-(6-chloro-2-(3-(dimethylamino)azetidin-1-yl)-8-fluoro-7-(2-fluoro-6-hydroxyphenyl)quinazolin-4-yl)-2,5-dimethylpiperazin-1-yl)prop-2-en-1-one]	+ (+ indicates binding activity greater than 0% and up to 50%)
C=CC(=O)N1C[C@H](C)N(c2nc(OCCn3ccnc3)nc3c(F)c(-c4c(O)cccc4F)c(Cl)cc23)C[C@H]1C (atropisomer, axis not shown) [Compound 249, 1-((2R,5S)-4-(2-(2-(1H-imidazol-1-yl)ethoxy)-6-chloro-8-fluoro-7-((S)-2-fluoro-6-hydroxyphenyl)quinazolin-4-yl)-2,5-dimethylpiperazin-1-yl)prop-2-en-1-one]	+++ (+++ indicates binding activity greater than 90%)
C=CC(=O)N1C[C@H](C)N(c2nc(N3CC(N(C)C)C3)nc3c(F)c(-c4c[nH]c5cccc(F)c45)c(Cl)cc23)C[C@H]1C [Compound 290, 1-((2R,5S)-4-(6-chloro-2-(3-(dimethylamino)azetidin-1-yl)-8-fluoro-7-(4-fluoro-1H-indol-3-yl)quinazolin-4-yl)-2,5-dimethylpiperazin-1-yl)prop-2-en-1-one]	+ (+ indicates binding activity greater than 0% and up to 50%)
C=CC(=O)N1C[C@H](C)N(c2nc(N3CC(N(C)C)C3)nc3c(F)c(-c4c(C)ccc5[nH]cnc45)c(Cl)cc23)C[C@H]1C [Compound 273, 1-((2R,5S)-4-(6-chloro-2-(3-(dimethylamino)azetidin-1-yl)-8-fluoro-7-(5-methyl-1H-benzo[d]imidazol-4-yl)quinazolin-4-yl)-2,5-dimethylpiperazin-1-yl)prop-2-en-1-one]	+++ (+++ indicates binding activity greater than 90%)
[2H]C([2H])([2H])N(C1CN(c2nc(N3C[C@@H](C)N(C(=O)C=C)C[C@@H]3C)c3cc(Cl)c(-c4c(O)cccc4F)c(F)c3n2)C1)C([2H])([2H])[2H] (atropisomer, axis not shown) [Compound 212, 1-((2R,5S)-4-(2-(3-(bis(tridueteromethyl)amino)azetidin-1-yl)-6-chloro-8-fluoro-7-((R)-2-fluoro-6-hydroxyphenyl)quinazolin-4-yl)-2,5-dimethylpiperazin-1-yl)prop-2-en-1-one]	+ (+ indicates binding activity greater than 0% and up to 50%)
C=CC(=O)N1C[C@H](C)N(c2nc(OCCO)nc3c(F)c(-c4c(O)cccc4F)c(Cl)cc23)C[C@H]1C [Compound 253, 1-((2R,5S)-4-(6-chloro-8-fluoro-7-(2-fluoro-6-hydroxyphenyl)-2-(2-hydroxyethoxy)quinazolin-4-yl)-2,5-dimethylpiperazin-1-yl)prop-2-en-1-one]	++ (++ indicates binding activity from 50 to 90%)
C=CC(=O)N1C[C@H](C)N(c2nc(OCCc3nccc(C)n3)nc3c(F)c(-c4c(O)cccc4F)c(Cl)cc23)C[C@H]1C (atropisomer, axis not shown) [Compound 257, 1-((2R,5S)-4-(6-chloro-8-fluoro-7-((S)-2-fluoro-6-hydroxyphenyl)-2-(2-(4-methylpyrimidin-2-yl)ethoxy)quinazolin-4-yl)-2,5-dimethylpiperazin-1-yl)prop-2-en-1-one]	+++ (+++ indicates binding activity greater than 90%)
C=CC(=O)N1C[C@H](C)N(c2nc(N3CC(N(C)C)C3)nc3c(F)c(-c4c(C)ccc5[nH]nc([N+](=O)[O-])c45)c(Cl)cc23)C[C@H]1C [Compound 297, 1-((2R,5S)-4-(6-chloro-2-(3-(dimethylamino)azetidin-1-yl)-8-fluoro-7-(5-methyl-3-nitro-1H-indazol-4-yl)quinazolin-4-yl)-2,5-dimethylpiperazin-1-yl)prop-2-en-1-one]	+ (+ indicates binding activity greater than 0% and up to 50%)
C=CC(=O)N1C[C@H](C)N(c2nc(OCCCN3CC(F)(F)C3)nc3c(F)c(-c4c(O)cccc4F)c(Cl)cc23)C[C@H]1C [Compound 250, 1-((2R,5S)-4-(6-chloro-2-(3-(3,3-difluoroazetidin-1-yl)propoxy)-8-fluoro-7-(2-fluoro-6-hydroxyphenyl)quinazolin-4-yl)-2,5-dimethylpiperazin-1-yl)prop-2-en-1-one]	+++ (+++ indicates binding activity greater than 90%)
C=CC(=O)N1C[C@H](C)N(c2nc(N3CC(N(C)C)C3)nc3c(F)c(-c4cc(O)cc5ccccc45)c(C(F)(F)F)cc23)C[C@H]1C [Compound 178, 1-((2R,5S)-4-(2-(3-(dimethylamino)azetidin-1-yl)-8-fluoro-7-(3-hydroxynaphthalen-1-yl)-6-(trifluoromethyl)quinazolin-4-yl)-2,5-dimethylpiperazin-1-yl)prop-2-en-1-one]	+++ (+++ indicates binding activity greater than 90%)
C=CC(=O)N1C[C@H](C)N(c2nc(OCCn3cnc4ccccc43)nc3c(F)c(-c4c(O)cccc4F)c(Cl)cc23)C[C@H]1C [Compound 254, 1-((2R,5S)-4-(2-(2-(1H-benzo[d]imidazol-1-yl)ethoxy)-6-chloro-8-fluoro-7-(2-fluoro-6-hydroxyphenyl)quinazolin-4-yl)-2,5-dimethylpiperazin-1-yl)prop-2-en-1-one]	+ (+ indicates binding activity greater than 0% and up to 50%)
